Test results taken from ChEMBL document CHEMBL2046386, “Potent and selective aminopyrimidine-based B-Raf inhibitors with favorable physicochemical and pharmacokinetic properties” (J Med Chem, 2012).
Values after ≈ are worked out from the molar mass of the structure shown.

Key:
[1] = Volume of distribution at steady state in mouse at 2.5 mg/kg, iv; type: ADME, organism-based; parameters: dose 2.5 mg/kg, route intravenous; settings: in vivo, read-out: Vdss
[2] = AUC in mouse at 30 mg/kg, po dosed in 0.5% methylcellulose/0.2% Tween 80/99.3% water; type: ADME, organism-based; parameters: dose 30 mg/kg, route oral; settings: in vivo
[3] = Oral bioavailability in mouse at 30 mg/kg; type: ADME, organism-based; settings: in vivo
[4] = molecular target: T1, Serine/threonine-protein kinase B-raf (Homo sapiens, UniProt P15056, V600E); assay: Inhibition of His6X-tagged human B-raf V600E mutant expressed in baculovirus infected insect cells coexpressing […] using [gamma33P]ATP after 60 mins by scintillation counting
[5] = Thermodynamic solubility of the compound at 0.5 mg/ml after 24 hrs by shake flask method at pH 1.2; type: physicochemical; settings: buffer, read-out: Therm_solubility
[6] = Lipophilicity, log P of the compound; type: physicochemical; settings: octanol/water
[7] = tested on: Mus musculus; assay: Toxicity in NCr nude mouse xenografted with human COLO205 cells expressing B-raf V600E mutant assessed as adverse effects; type: organism-based, COLO 205; settings: in vivo
[8] = Plasma protein binding in mouse; type: ADME, cell-free; settings: read-out: PPB (converted)
[9] = molecular target: T1, Serine/threonine-protein kinase B-raf; assay: Inhibition of B-raf V600E mutant-mediated Erk phosphorylation in human MALM-3M cells by fluorometric analysis; type: cell-based
[10] = Thermodynamic solubility of the compound at 0.5 mg/ml after 24 hrs by shake flask method at pH 6.5; type: physicochemical; settings: buffer, read-out: Therm_solubility
[11] = Clearance in mouse at 2.5 mg/kg, iv; type: ADME, organism-based; parameters: dose 2.5 mg/kg, route intravenous; settings: in vivo
[12] = Dissociation constant, pKa of the compound at basic pH; type: physicochemical
[13] = tested on: HT-29; assay: Antiproliferative activity against human HT-29 cells expressing B-raf V600E mutant and high level of EGFR; type: functional, cell-based
[14] = tested on: COLO 205; assay: Antitumor activity against human COLO205 cells expressing B-raf V600E mutant xenografted in po dosed NCr nude mouse assessed as decrease in tumor volume administered once daily for 21 days measured twice a week up to 21 days; type: functional; settings: for ED50 / ED90: Mus musculus, COLO 205, po, 504 h
[15] = Time-dependent inhibition of cytochrome P450; type: ADME
[16] = AUC in rat at 5 mg/kg, po dosed as crystalline suspension in 20%HPBCD vehicle (20% hydroxypropyl-beta-cyclodextrin/80% water); type: ADME, organism-based; parameters: dose 5 mg/kg, route oral; settings: plasma
[17] = Clearance in rat at 1 mg/kg, iv dosed as crystalline suspension in 20%HPBCD vehicle (20% hydroxypropyl-beta-cyclodextrin/80% water); type: ADME, organism-based; parameters: dose 1 mg/kg, route intravenous; settings: in vivo
[18] = molecular target: Cytochrome P450 2C9 (Homo sapiens, UniProt P11712); assay: Inhibition of CYP2C9; type: ADME
[19] = Inhibition of cytochrome P450; type: ADME
[20] = Antiproliferative activity against human A375.X1 cells expressing B-raf V600E mutant; type: functional, cell-based
[21] = Cmax in mouse at 10 mg/kg, po dosed as crystalline suspension in 20%HPBCD vehicle (20% hydroxypropyl-beta-cyclodextrin/80% water); type: ADME, organism-based; parameters: dose 10 mg/kg, route oral; settings: in vivo
[22] = AUC in mouse at 30 mg/kg, po dosed as crystalline suspension in 20%HPBCD vehicle (20% hydroxypropyl-beta-cyclodextrin/80% water); type: ADME, organism-based; parameters: dose 30 mg/kg, route oral; settings: plasma
[23] = Cmax in rat at 25 mg/kg, po dosed as crystalline suspension in 20%HPBCD vehicle (20% hydroxypropyl-beta-cyclodextrin/80% water); type: ADME, organism-based; parameters: dose 25 mg/kg, route oral; settings: in vivo
[24] = molecular target: Serine/threonine-protein kinase B-raf (Homo sapiens, UniProt P15056); assay: Inhibition of wild type B-raf in presence of 1 mM ATP
[25] = tested on: COLO 205; assay: Antiproliferative activity against human COLO205 cells expressing B-raf V600E mutant; type: functional, cell-based
[26] = AUC in rat at 25 mg/kg, po dosed as crystalline suspension in 20%HPBCD vehicle (20% hydroxypropyl-beta-cyclodextrin/80% water); type: ADME, organism-based; parameters: dose 25 mg/kg, route oral; settings: plasma
[27] = molecular target: RAF proto-oncogene serine/threonine-protein kinase (Homo sapiens, UniProt P04049); assay: Inhibition of wild type C-raf in presence of 1 mM ATP
[28] = Cmax in rat at 5 mg/kg, po dosed as crystalline suspension in 20%HPBCD vehicle (20% hydroxypropyl-beta-cyclodextrin/80% water); type: ADME, organism-based; parameters: dose 5 mg/kg, route oral; settings: in vivo
[29] = Cmax in mouse at 50 mg/kg, po dosed as crystalline suspension in 20%HPBCD vehicle (20% hydroxypropyl-beta-cyclodextrin/80% water); type: ADME, organism-based; parameters: dose 50 mg/kg, route oral; settings: in vivo
[30] = Oral bioavailability in mouse at 1 mg/kg dosed as crystalline suspension in 20%HPBCD vehicle (20% hydroxypropyl-beta-cyclodextrin/80% water); type: ADME, organism-based; settings: in vivo
[31] = tested on: NCI-H226; assay: Antiproliferative activity against human NCI-H226 cells expressing wild-type B-raf; type: functional, cell-based
[32] = AUC in mouse at 10 mg/kg, po dosed as crystalline suspension in 20%HPBCD vehicle (20% hydroxypropyl-beta-cyclodextrin/80% water); type: ADME, organism-based; parameters: dose 10 mg/kg, route oral; settings: plasma
[33] = molecular target: Voltage-gated inwardly rectifying potassium channel KCNH2 (Homo sapiens, UniProt Q12809); assay: Inhibition of human Erg
[34] = Oral bioavailability in rat at 5 mg/kg dosed as crystalline suspension in 20%HPBCD vehicle (20% hydroxypropyl-beta-cyclodextrin/80% water); type: ADME, organism-based; settings: in vivo
[35] = AUC in mouse at 1 mg/kg, po dosed as crystalline suspension in 20%HPBCD vehicle (20% hydroxypropyl-beta-cyclodextrin/80% water); type: ADME, organism-based; parameters: dose 1 mg/kg, route oral; settings: plasma
[36] = Oral bioavailability in rat at 25 mg/kg dosed as crystalline suspension in 20%HPBCD vehicle (20% hydroxypropyl-beta-cyclodextrin/80% water); type: ADME, organism-based; settings: in vivo
[37] = tested on: Salmonella typhimurium; assay: Induction of mutagenesis in Salmonella typhimurium by Ames test; type: toxicity, organism-based; settings: salmonella enterica subsp. enterica serovar typhimurium
[38] = organism: Homo sapiens; assay: Selectivity index, ratio of IC50 for wild-type B-raf to IC50 for human Braf V600E mutant
[39] = Oral bioavailability in mouse at 10 mg/kg dosed as crystalline suspension in 20%HPBCD vehicle (20% hydroxypropyl-beta-cyclodextrin/80% water); type: ADME, organism-based; settings: in vivo
[40] = organism: Homo sapiens; assay: Selectivity index, ratio of IC50 for wild-type C-raf to IC50 for human Braf V600E mutant
[41] = Cmax in mouse at 30 mg/kg, po dosed as crystalline suspension in 20%HPBCD vehicle (20% hydroxypropyl-beta-cyclodextrin/80% water); type: ADME, organism-based; parameters: dose 30 mg/kg, route oral; settings: in vivo
[42] = Cmax in mouse at 1 mg/kg, po dosed as crystalline suspension in 20%HPBCD vehicle (20% hydroxypropyl-beta-cyclodextrin/80% water); type: ADME, organism-based; parameters: dose 1 mg/kg, route oral; settings: in vivo
[43] = Oral bioavailability in mouse at 30 mg/kg dosed as crystalline suspension in 20%HPBCD vehicle (20% hydroxypropyl-beta-cyclodextrin/80% water); settings: in vivo
[44] = AUC in mouse at 50 mg/kg, po dosed as crystalline suspension in 20%HPBCD vehicle (20% hydroxypropyl-beta-cyclodextrin/80% water); type: ADME, organism-based; parameters: dose 50 mg/kg, route oral; settings: plasma
[45] = molecular target: T1, Serine/threonine-protein kinase B-raf; assay: Inhibition of His6X-tagged human B-raf V600E mutant expressed in baculovirus infected insect cells coexpressing […] using [gamma33P]ATP after 60 mins by scintillation counting in presence of 1 mM ATP
[46] = Volume of distribution at steady state in rat at 1 mg/kg, iv dosed as crystalline suspension in 20%HPBCD vehicle (20% hydroxypropyl-beta-cyclodextrin/80% water); type: ADME, organism-based; parameters: dose 1 mg/kg, route intravenous; settings: in vivo, read-out: Vdss
[47] = tested on: RKO; assay: Antiproliferative activity against PTEN-deficient human RKO cells expressing B-raf V600E mutant and high level of EGFR; type: functional, cell-based
[48] = Oral bioavailability in mouse at 30 mg/kg dosed as crystalline suspension in 20%HPBCD vehicle (20% hydroxypropyl-beta-cyclodextrin/80% water); type: ADME, organism-based; settings: in vivo
[49] = Dissociation constant, pKa of the compound at acidic pH; type: physicochemical
[50] = Thermodynamic solubility of the compound at 0.5 mg/ml after 24 hrs by shake flask method at pH 7.4; type: physicochemical; settings: buffer, read-out: Therm_solubility

T1 sequence (P15056 2-766 V600E limits assumed): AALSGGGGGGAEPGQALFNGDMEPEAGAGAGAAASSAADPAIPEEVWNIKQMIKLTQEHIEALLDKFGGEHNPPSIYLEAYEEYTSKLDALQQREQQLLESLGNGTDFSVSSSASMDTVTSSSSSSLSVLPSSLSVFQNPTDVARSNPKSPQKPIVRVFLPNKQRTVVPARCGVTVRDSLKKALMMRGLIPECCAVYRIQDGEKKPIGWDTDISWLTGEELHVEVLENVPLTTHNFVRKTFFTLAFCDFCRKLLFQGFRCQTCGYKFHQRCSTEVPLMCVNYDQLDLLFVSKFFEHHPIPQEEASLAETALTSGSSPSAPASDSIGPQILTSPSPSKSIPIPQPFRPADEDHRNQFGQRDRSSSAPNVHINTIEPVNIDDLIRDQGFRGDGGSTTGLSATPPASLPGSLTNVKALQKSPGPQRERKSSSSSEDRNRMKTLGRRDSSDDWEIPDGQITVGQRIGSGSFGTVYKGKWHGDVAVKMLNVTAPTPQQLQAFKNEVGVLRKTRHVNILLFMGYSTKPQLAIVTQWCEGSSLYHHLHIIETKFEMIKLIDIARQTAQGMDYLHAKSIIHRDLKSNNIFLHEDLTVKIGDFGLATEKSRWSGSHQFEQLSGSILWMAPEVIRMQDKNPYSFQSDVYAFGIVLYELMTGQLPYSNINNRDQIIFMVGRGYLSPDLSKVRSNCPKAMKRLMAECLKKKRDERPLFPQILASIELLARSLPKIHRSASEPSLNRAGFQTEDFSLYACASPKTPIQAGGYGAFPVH
Voltage-gated inwardly rectifying potassium channel KCNH2, sequence (Q12809 whole entry): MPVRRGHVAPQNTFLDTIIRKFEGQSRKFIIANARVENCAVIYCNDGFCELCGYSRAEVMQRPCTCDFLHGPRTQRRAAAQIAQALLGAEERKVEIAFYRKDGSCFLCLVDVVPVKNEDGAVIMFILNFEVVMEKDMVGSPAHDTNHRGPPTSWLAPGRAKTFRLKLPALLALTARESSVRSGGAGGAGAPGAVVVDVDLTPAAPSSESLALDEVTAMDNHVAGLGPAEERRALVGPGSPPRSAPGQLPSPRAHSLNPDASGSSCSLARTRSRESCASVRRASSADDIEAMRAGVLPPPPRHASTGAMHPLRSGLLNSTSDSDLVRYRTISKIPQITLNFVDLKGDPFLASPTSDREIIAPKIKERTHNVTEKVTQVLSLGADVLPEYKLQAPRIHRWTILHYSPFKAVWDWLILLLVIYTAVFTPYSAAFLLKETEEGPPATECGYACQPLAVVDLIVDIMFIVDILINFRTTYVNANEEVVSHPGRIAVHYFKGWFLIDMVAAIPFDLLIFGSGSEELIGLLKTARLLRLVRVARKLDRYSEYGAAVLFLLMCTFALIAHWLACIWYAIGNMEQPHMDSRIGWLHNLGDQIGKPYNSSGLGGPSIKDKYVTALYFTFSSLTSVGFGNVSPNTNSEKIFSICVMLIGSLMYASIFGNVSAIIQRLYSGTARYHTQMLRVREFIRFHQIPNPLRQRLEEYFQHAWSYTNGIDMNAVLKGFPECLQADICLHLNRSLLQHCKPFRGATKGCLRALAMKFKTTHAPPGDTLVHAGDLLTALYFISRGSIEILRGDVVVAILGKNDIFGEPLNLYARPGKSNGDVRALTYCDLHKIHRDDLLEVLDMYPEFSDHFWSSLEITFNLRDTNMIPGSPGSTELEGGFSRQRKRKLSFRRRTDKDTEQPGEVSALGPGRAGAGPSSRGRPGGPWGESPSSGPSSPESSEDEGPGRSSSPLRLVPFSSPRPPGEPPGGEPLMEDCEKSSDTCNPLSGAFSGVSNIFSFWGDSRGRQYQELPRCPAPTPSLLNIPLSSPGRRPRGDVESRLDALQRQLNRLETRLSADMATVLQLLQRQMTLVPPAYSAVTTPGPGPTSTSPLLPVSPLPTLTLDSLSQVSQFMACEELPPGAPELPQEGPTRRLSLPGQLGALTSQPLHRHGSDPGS
RAF proto-oncogene serine/threonine-protein kinase, sequence (P04049 whole entry): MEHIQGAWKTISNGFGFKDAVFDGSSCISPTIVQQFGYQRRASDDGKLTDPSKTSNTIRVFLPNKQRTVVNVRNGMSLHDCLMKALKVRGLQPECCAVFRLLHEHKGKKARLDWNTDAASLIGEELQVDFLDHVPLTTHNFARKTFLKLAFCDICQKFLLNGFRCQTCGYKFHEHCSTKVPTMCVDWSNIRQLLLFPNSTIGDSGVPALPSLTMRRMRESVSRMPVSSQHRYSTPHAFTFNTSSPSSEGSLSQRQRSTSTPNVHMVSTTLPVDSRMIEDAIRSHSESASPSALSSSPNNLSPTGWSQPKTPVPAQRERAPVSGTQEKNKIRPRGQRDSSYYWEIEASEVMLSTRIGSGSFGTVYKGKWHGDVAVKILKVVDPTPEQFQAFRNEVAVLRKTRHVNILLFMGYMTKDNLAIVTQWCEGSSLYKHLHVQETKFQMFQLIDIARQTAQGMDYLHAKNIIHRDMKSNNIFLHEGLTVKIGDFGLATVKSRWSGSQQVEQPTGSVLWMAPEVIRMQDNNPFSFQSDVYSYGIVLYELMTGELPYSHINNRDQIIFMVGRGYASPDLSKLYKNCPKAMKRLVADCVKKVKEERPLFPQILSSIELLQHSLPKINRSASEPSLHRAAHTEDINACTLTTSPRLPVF
Serine/threonine-protein kinase B-raf (Homo sapiens, UniProt P15056), sequence (P15056 whole entry): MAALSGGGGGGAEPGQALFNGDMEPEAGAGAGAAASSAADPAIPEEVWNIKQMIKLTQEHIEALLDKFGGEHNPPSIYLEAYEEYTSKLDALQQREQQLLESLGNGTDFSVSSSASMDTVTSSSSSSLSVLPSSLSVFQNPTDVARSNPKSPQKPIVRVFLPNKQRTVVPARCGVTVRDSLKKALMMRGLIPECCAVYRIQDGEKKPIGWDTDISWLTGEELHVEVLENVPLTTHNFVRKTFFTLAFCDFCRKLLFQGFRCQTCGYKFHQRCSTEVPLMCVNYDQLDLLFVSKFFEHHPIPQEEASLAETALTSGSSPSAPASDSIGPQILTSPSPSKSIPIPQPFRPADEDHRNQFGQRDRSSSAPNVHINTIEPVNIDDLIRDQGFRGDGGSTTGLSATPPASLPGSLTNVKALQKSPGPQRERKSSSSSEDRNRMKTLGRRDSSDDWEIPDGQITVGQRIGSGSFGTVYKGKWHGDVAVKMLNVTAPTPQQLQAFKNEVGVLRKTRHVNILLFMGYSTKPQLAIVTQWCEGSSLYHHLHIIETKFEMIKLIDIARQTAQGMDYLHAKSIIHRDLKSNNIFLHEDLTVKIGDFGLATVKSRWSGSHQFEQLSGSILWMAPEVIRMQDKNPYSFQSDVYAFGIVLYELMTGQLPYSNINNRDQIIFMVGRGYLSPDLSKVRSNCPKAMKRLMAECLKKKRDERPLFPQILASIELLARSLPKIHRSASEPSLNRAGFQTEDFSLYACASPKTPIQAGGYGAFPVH
Cytochrome P450 2C9, sequence (P11712 whole entry): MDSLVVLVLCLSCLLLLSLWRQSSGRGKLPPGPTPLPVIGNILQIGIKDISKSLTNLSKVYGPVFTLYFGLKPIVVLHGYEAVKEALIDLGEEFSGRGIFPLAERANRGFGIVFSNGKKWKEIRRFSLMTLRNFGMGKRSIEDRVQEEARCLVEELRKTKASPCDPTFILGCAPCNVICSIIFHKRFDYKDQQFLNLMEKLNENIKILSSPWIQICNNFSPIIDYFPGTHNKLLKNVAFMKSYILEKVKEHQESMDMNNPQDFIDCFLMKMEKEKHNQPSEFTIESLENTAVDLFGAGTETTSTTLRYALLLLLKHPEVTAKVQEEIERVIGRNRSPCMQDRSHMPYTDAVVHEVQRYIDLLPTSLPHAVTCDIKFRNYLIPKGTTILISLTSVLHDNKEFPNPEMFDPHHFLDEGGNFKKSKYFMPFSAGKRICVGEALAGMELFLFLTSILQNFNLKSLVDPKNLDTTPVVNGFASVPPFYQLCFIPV

CCCS(=O)(=O)Nc1ccc(F)c(NC(=O)c2csc3c(N)ncnc23)c1F
Vd [1]: 0.2 L/kg | AUC [2]: 874 µM·h | bioavailability [3]: 100% | IC50 [4]: 2.5 nM | solubility thermodynamic at 24 h [5]: > 1000 µg/mL | logP [6]: 2.7 | Activity [7]: Non-toxic | fraction unbound [8]: 0.016 | IC50 [9]: 15 nM | solubility thermodynamic at 24 h [10]: 5 µg/mL (≈ 11.7 µM) | clearance [11]: 1 mL/min/kg | pKa [12]: 3.6

Nc1ncnc2c(C(=O)Nc3c(Cl)ccc(NS(=O)(=O)CCCF)c3F)csc12
Vd [1]: 0.12 L/kg | EC50 [13]: 24 nM | TGI [14]: 130% | ED50 [14]: 1.1 mg/kg | ED90 [14]: 6.2 mg/kg | inhibition (INH) [15]: Not Active | AUC [16]: 651 µM·h | clearance [17]: 0.19 mL/min/kg | IC50 [18]: 9000 nM | IC50 [19]: > 25000 nM | EC50 [20]: 2 nM | Cmax [21]: 73 µM | AUC [22]: 1680 µM·h | Cmax [23]: 201 µM | IC50 [24]: 22 nM | EC50 [25]: 5 nM | IC50 [4]: 0.18 nM | solubility thermodynamic at 24 h [5]: 700 µg/mL (≈ 1520 µM) | AUC [26]: 2970 µM·h | IC50 [27]: 73 nM | Cmax [28]: 44.5 µM | logP [6]: 3.6 | Cmax [29]: 249 µM | bioavailability [30]: > 100% | EC50 [31]: > 10000 nM | AUC [32]: 867 µM·h | inhibition (INH) [33]: Not Active | bioavailability [34]: 68% | AUC [35]: 84 µM·h | Activity [7]: Non-toxic | bioavailability [36]: 62% | Activity [37]: Non-toxic | fraction unbound [8]: 0.03 | Ratio IC50 [38]: 11 | bioavailability [39]: > 100% | Ratio IC50 [40]: 152 | Cmax [41]: 162 µM | IC50 [9]: 4.6 nM | solubility thermodynamic at 24 h [10]: 10 µg/mL (≈ 21.6 µM) | Cmax [42]: 7.93 µM | bioavailability [43]: > 100% | AUC [44]: 3250 µM·h | IC50 [45]: 2 nM | clearance [11]: 0.79 mL/min/kg | Vd [46]: 0.14 L/kg | pKa [12]: 3.6 | EC50 [47]: 2310 nM | bioavailability [48]: > 100%

CCCS(=O)(=O)Nc1ccc(F)c(NC(=O)Nc2cc(NC)ncn2)c1F
IC50 [4]: 36 nM | solubility thermodynamic at 24 h [5]: 900 µg/mL (≈ 2250 µM) | IC50 [9]: 168 nM

CCCS(=O)(=O)Nc1ccc(Cl)c(NC(=O)c2cccc3c(N)ncnc23)c1F
IC50 [4]: 0.59 nM | IC50 [9]: 9.5 nM

CCCS(=O)(=O)Nc1ccc(F)c(NC(=O)Nc2ncnc3[nH]ncc23)c1F
IC50 [4]: 5.6 nM | solubility thermodynamic at 24 h [5]: 7 µg/mL (≈ 17 µM) | IC50 [9]: 88 nM

CCCS(=O)(=O)Nc1ccc(F)c(C(=O)Nc2cnc3[nH]nc(OC)c3c2)c1F
TGI [14]: 76% | ED50 [14]: 25.2 mg/kg | ED90 [14]: 139 mg/kg | pKa [49]: 0.7 | solubility thermodynamic at 24 h [5]: 3 µg/mL (≈ 7.05 µM) | solubility thermodynamic at 24 h [50]: 9 µg/mL (≈ 21.2 µM) | solubility thermodynamic at 24 h [10]: 4 µg/mL (≈ 9.4 µM) | pKa [12]: 0.7

CCCS(=O)(=O)Nc1ccc(F)c(NC(=O)Nc2ncnc3[nH]nc(OC)c23)c1F
pKa [49]: 1.8 | IC50 [4]: 1.6 nM | solubility thermodynamic at 24 h [5]: 49 µg/mL (≈ 111 µM) | EC50 [9]: 2.6 nM
